Laboratory results: paper PMC10122656, “Siglec-6 mediates the uptake of extracellular vesicles through a noncanonical glycolipid binding pocket” (Nature Communications, 2023)
Where “and” joins values, the source holds several entries; their conditions need not be identical. Equal values may be shown once.

Experiments:
Test in all cases: Cell assay (liposome/EV binding, flow cytometry)
[1] = system: untransfected (UT) CHO cells; format: cell-based, Chinese Hamster; settings: UT; 3 mol% ganglioside liposomes; replicates
Experimental: (§1) Stock lipids (DSPC, Cholesterol, PEG45–DSPE) solutions were prepared by solvating the lipids in chloroform. An appropriate volume of each lipid solution was transferred to a glass test tube to reach the desired mol% of the component. The chloroform was then removed under N2 gas to yield a lipid thin film. Once dry, 100 µL of DMSO was added to the lipid-containing test tube and then the functional lipids (ganglioside, AF647–PEG45–DSPE, Siglec ligand–PEG45–DSPE, pHrodo–PEG45–DSPE, NGL) was added from their respect DMSO stock solution. The lipid mixture was then stored at −80 °C until completely frozen at which point excess DMSO was removed via lyophilization. Dry lipids were then stored at −80 °C until they were extruded. Lipid suppliers can be found in Supplementary Table 4.
(§2) Dry lipids were then hydrated in 1 mL of PBS. The lipids were then sonicated in a bath sonicator in a cycle of 1 min on, 5 min off for a total of five cycles. Liposomes were then extruded using an Avanti mini extruder first using an 800 nm filter and then a 100 nm filter yielding liposomes that were 130 ± 35 nm (Supplementary Table 5) measured using a Malvern Panalytical Zetasizer Nano S. Liposomes were stored at 4 °C.
(§3) 200,000 cells/well were plated into a 96-well U-bottom microplate and centrifuged at 300 × g for 5 min. The cells were then resuspended in 50 µL of 50 µM liposome/50 µg/mL (protein concentration) of EV solution in DMEM F12 5% FBS and incubated at 37 °C for 30 min. Excess liposomes were then removed via centrifuged at 300 × g for 5 min followed by washing the cells with FACS solution. The cells were then resuspended in (1:250 V/V) anti-Siglec-flow buffer (1% V/V FBS, 500 µM, EDTA Hank’s Balanced Salt Solution pH 7.4), solution and left to rest on ice for 30 min. The cells were then centrifuged again at 300 × g for 5 min and the cells were resuspended in FACS buffer solution and were then ready for analysis by flow cytometry. Information regarding antibody clone, catalog number supplier, label isotype, and dilution can be found in Supplementary Table 6. The Siglec-positive cells were gated on for liposome-binding analysis (Supplementary Fig. 1b).
(§4) Flow cytometry measurements were collected on a 5-laser Fortessa X-20 (BD Bioscience). All the resulting data were analyzed using FlowJo (10.5.3) software (BD Biosciences).

WT Siglec-1 CHO cells = target: T1, WT Siglec-1 CHO cells (Homo sapiens, UniProt Q9BZZ2); format: cell-based; design: GM1 liposome binding to Siglec-1 CHO cells, flow cytometry (Fig. 1b) / Binding of liposomes with increasing ganglioside content against Siglec-1 CHO cells (Fig. 1c) / Liposome binding to Siglec-1-expressing CHO cells in the cell assay (Fig. 1f): unit not given here; settings: for Binding of liposomes with increasing ganglioside content against Siglec-1 CHO cells (Fig. 1c) / log10(MFI AF647) of GLL relative to log10(MFI AF647) of the same GLL against UT CHO cells (Fig. 2a): replicates; for log10(MFI AF647) of GLL relative to log10(MFI AF647) of the same GLL against UT CHO cells (Fig. 2a): Sig-1 WT, 3 mol% ganglioside liposomes; for ganglioside content threshold above which GLL binding to Siglec-1 CHO cells decreased: ganglioside titrated in GLLs
T1 construct: expressed in transfected cells
T1 sequence (Q9BZZ2 20-1709): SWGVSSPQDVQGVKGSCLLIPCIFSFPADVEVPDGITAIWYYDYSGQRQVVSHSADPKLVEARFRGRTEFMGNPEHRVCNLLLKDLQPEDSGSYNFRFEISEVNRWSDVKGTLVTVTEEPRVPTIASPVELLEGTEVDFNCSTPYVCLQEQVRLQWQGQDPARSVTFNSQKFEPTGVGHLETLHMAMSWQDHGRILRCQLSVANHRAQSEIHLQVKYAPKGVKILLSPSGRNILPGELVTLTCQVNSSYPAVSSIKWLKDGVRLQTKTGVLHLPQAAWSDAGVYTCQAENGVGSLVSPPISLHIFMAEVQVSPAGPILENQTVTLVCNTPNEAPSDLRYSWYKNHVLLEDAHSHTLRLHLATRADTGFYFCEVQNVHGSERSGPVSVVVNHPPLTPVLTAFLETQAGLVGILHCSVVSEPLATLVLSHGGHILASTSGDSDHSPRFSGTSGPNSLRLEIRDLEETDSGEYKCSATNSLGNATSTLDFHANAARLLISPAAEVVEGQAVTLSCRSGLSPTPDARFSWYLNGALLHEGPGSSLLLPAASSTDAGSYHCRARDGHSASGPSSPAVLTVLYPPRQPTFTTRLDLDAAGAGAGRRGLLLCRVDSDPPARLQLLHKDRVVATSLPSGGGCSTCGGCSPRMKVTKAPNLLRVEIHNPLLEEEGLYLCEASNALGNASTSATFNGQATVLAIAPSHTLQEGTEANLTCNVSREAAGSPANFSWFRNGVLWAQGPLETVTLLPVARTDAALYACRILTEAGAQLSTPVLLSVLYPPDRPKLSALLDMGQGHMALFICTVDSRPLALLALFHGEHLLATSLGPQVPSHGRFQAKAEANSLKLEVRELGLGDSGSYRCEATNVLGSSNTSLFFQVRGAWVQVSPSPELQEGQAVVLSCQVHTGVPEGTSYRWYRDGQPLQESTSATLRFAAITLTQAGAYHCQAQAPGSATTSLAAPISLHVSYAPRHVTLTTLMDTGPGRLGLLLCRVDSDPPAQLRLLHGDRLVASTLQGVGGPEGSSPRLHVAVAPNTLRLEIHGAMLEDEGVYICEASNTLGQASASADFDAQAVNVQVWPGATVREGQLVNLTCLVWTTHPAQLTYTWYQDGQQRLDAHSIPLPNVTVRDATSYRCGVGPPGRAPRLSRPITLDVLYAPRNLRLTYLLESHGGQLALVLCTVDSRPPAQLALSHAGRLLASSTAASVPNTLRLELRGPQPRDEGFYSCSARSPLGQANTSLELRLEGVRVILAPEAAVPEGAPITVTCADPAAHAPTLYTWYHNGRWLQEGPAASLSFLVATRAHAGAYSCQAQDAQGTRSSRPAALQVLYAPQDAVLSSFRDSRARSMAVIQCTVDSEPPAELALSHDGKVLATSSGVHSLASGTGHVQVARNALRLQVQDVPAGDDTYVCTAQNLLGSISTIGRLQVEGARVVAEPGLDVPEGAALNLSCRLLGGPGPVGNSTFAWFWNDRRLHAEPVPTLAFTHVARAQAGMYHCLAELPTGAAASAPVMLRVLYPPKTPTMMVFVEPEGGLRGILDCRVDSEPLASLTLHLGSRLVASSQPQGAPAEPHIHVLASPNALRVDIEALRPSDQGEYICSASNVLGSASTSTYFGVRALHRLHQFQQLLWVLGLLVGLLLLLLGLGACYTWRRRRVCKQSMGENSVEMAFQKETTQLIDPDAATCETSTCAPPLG
Experimental: as §1, §2, §3, §4

R122A Siglec-6 CHO cells = target: T2, R122A Siglec-6 CHO cells (Homo sapiens, UniProt O43699, R122A); format: cell-based; settings: Sig-6 R122A; 3 mol% ganglioside liposomes; replicates
T2 construct: expressed in transfected cells
T2 sequence (O43699 27-453 R122A): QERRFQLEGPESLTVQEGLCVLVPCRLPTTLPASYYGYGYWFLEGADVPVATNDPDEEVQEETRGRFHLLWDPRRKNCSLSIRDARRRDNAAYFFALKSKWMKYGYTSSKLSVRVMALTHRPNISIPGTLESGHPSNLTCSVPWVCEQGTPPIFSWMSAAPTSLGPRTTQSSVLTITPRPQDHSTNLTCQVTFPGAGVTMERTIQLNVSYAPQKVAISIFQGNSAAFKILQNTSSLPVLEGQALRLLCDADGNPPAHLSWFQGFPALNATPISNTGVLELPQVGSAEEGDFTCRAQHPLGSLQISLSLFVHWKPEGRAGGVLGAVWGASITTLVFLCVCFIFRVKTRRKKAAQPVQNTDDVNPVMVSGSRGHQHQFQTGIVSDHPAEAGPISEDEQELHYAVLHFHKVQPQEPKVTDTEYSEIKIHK
Procedure, shortened: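 Binding of AF647-labelled, Siglec ligand-bearing liposomes (130 ± 35 nm) or EVs was measured on transfected CHO cells. Exposure was 50 µM or 50 µg/mL for 30 min at 37 °C; Siglec-positive cells were gated for analysis.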

[2] = target: T3, Siglec-10 R119A CHO cells (Homo sapiens, UniProt Q96LC7, R119A); format: cell-based; settings: Sig-10 R119A; 3 mol% ganglioside liposomes; replicates
T3 construct: expressed in transfected cells
T3 sequence (Q96LC7 17-697 R119A): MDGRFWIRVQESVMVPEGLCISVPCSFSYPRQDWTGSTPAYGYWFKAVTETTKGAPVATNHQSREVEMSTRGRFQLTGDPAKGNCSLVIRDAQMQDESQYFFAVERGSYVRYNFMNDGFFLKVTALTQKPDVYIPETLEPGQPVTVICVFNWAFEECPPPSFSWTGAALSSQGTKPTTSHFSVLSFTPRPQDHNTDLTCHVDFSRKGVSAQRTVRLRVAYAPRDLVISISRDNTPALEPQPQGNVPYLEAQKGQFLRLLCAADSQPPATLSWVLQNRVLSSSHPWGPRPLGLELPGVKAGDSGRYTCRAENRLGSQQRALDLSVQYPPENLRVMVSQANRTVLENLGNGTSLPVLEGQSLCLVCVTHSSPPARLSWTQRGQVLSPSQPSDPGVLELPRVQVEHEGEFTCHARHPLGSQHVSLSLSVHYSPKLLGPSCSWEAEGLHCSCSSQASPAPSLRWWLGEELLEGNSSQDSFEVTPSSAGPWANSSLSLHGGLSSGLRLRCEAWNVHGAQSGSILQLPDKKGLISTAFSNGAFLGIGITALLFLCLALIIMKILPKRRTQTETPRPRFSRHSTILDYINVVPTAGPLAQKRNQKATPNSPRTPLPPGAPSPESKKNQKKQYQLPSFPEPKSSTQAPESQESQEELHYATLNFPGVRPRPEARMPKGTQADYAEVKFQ
Procedure, shortened: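 CHO cells expressing the indicated Siglec (wild-type or R-to-A mutant) were incubated 30 min at 37 °C with 50 µM fluorescent DSPC/cholesterol/PEG-DSPE liposomes (~130 nm, Siglec ligand-bearing) or 50 µg/mL EVs in DMEM F12 5% FBS. After washing and anti-Siglec staining on ice, binding was measured by flow cytometry on Siglec-positive gated cells.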

In the case of GD1a, the “log10(MFI AF647) of GLL relative to log10(MFI AF647) of the same GLL against UT CHO cells (Fig. 2a)” value [1] is reported as 0.01 and -0.05 and 0 and 0.04, the “Binding of liposomes with increasing ganglioside content against Siglec-1 CHO cells (Fig. 1c)” value (WT Siglec-1 CHO cells; 0.000187 Ligand/nm2) is reported as -0.01 and the “Binding of liposomes with increasing ganglioside content against Siglec-1 CHO cells (Fig. 1c)” value (WT Siglec-1 CHO cells; 0.00933 Ligand/nm2) is reported as 0.01. The “Binding of liposomes with increasing ganglioside content against Siglec-1 CHO cells (Fig. 1c)” value (WT Siglec-1 CHO cells; 0.0187 Ligand/nm2) was 0.5 and 0.49 and 0.48 and 0.51, the “Binding of liposomes with increasing ganglioside content against Siglec-1 CHO cells (Fig. 1c)” value (WT Siglec-1 CHO cells; 0.0933 Ligand/nm2) was 0.26 (2×) and 0.28 and 0.3 and the “Binding of liposomes with increasing ganglioside content against Siglec-1 CHO cells (Fig. 1c)” value (WT Siglec-1 CHO cells; 0.187 Ligand/nm2) was 0.19 (3×) and 0.2. The “Binding of liposomes with increasing ganglioside content against Siglec-1 CHO cells (Fig. 1c)” value (WT Siglec-1 CHO cells; 0.373 Ligand/nm2) was 0.1 (2×) and 0.09 (2×), the “log10(MFI AF647) of GLL relative to log10(MFI AF647) of the same GLL against UT CHO cells (Fig. 2a)” value (WT Siglec-1 CHO cells) was 0.86 (2×) and 0.89 and 0.85 and the “ganglioside content threshold above which GLL binding to Siglec-1 CHO cells decreased” value (WT Siglec-1 CHO cells) was 1–3 mol%. The “log10(MFI AF647) of GLL relative to log10(MFI AF647) of the same GLL against UT CHO cells (Fig. 2a)” value (R122A Siglec-6 CHO cells) was 0.5 and 0.47 and 0.41 and 0.51 and the “log10(MFI AF647) of GLL relative to log10(MFI AF647) of the same GLL against UT CHO cells (Fig. 2a)” value [2] was 0.11 and 0.12 and 0.1 (2×).
In the case of GM4, the “log10(MFI AF647) of GLL relative to log10(MFI AF647) of the same GLL against UT CHO cells (Fig. 2a)” value [1] is reported as 0.02 and -0.01 (2×) and 0, the “log10(MFI AF647) of GLL relative to log10(MFI AF647) of the same GLL against UT CHO cells (Fig. 2a)” value (WT Siglec-1 CHO cells) is reported as 0.04 and 0.02 (2×) and -0.02 and the “log10(MFI AF647) of GLL relative to log10(MFI AF647) of the same GLL against UT CHO cells (Fig. 2a)” value (R122A Siglec-6 CHO cells) is reported as 0. For the same substance, the “log10(MFI AF647) of GLL relative to log10(MFI AF647) of the same GLL against UT CHO cells (Fig. 2a)” value [2] was 0 and -0.02 and 0.02 and 0.01.
For GM2, the “log10(MFI AF647) of GLL relative to log10(MFI AF647) of the same GLL against UT CHO cells (Fig. 2a)” value [1] was 0.1 and 0.05 (2×) and 0.06, the “Binding of liposomes with increasing ganglioside content against Siglec-1 CHO cells (Fig. 1c)” value (WT Siglec-1 CHO cells; 0.00187 Ligand/nm2) was -0.01 and the “Binding of liposomes with increasing ganglioside content against Siglec-1 CHO cells (Fig. 1c)” value (WT Siglec-1 CHO cells; 0.00933 Ligand/nm2) was 0.11 (2×) and 0.13 and 0.16. For the same substance, the “Binding of liposomes with increasing ganglioside content against Siglec-1 CHO cells (Fig. 1c)” value (WT Siglec-1 CHO cells; 0.0187 Ligand/nm2) was 1.01 and 0.97 and 1 and 1.02, the “Binding of liposomes with increasing ganglioside content against Siglec-1 CHO cells (Fig. 1c)” value (WT Siglec-1 CHO cells; 0.056 Ligand/nm2) was 0.8 and 0.79 and 0.78 (2×) and the “Binding of liposomes with increasing ganglioside content against Siglec-1 CHO cells (Fig. 1c)” value (WT Siglec-1 CHO cells; 0.0933 Ligand/nm2) was 0.59 and 0.57 and 0.55 (2×). For the same substance, the “Binding of liposomes with increasing ganglioside content against Siglec-1 CHO cells (Fig. 1c)” value (WT Siglec-1 CHO cells; 0.373 Ligand/nm2) was 0.24 and 0.22 (3×), the “log10(MFI AF647) of GLL relative to log10(MFI AF647) of the same GLL against UT CHO cells (Fig. 2a)” value (WT Siglec-1 CHO cells) was 1.23 and 1.19 and 1.21 and 1.2 and the “ganglioside content threshold above which GLL binding to Siglec-1 CHO cells decreased” value (WT Siglec-1 CHO cells) was 1–3 mol%. For the same substance, the “log10(MFI AF647) of GLL relative to log10(MFI AF647) of the same GLL against UT CHO cells (Fig. 2a)” value (R122A Siglec-6 CHO cells) was 0.01 and the “log10(MFI AF647) of GLL relative to log10(MFI AF647) of the same GLL against UT CHO cells (Fig. 2a)” value [2] was 0.05 and 0.07 (2×) and 0.06.
